# Assay results published in ChEMBL document CHEMBL1201862, “PubChem BioAssay data set” (2004).
#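 Each compound was tested at five concentrations against cells in 96-well plates for 48 hours. GI50 is the concentration that inhibits growth by half.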 Active and inactive are the calls of the source. Rule as the data show it: active = GI50 up to about 1.1 µM and inactive = higher.
# Experiments:
# Experiment in all cases: growth of human tumour cells (NCI), 48 h
# MOLT-4 = system: MOLT-4
# SNB-75 = system: SNB-75
# SF-268 = system: SF-268
# MDA-MB-231 = system: MDA-MB-231
# A498 = system: A498
# M14 = system: M14
# T47D = system: T47D
# Hs-578T = system: Hs-578T
# MDA-N = system: MDA-N
# EKVX = system: EKVX
# U-251 = system: U-251
# HCC 2998 = system: HCC 2998
# NCI-H226 = system: NCI-H226
# SR = system: SR
# COLO 205 = system: COLO 205
# K562 = system: K562
# SNB-19 = system: SNB-19
# MCF7 = system: MCF7
# RPMI-8226 = system: RPMI-8226
# TK-10 = system: TK-10
# OVCAR-3 = system: OVCAR-3
# SK-MEL-2 = system: SK-MEL-2
# NCI/ADR-RES = system: NCI/ADR-RES
# OVCAR-5 = system: OVCAR-5
# CAKI-1 = system: CAKI-1
# HCT-116 = system: HCT-116
# DU-145 = system: DU-145
# LOX IMVI = system: LOX IMVI
# HCT-15 = system: HCT-15
# Malme-3M = system: Malme-3M
# SK-MEL-28 = system: SK-MEL-28
# SN12C = system: SN12C
# UACC-62 = system: UACC-62
# NCI-H522 = system: NCI-H522
# SW-620 = system: SW-620
# UACC-257 = system: UACC-257
# IGROV-1 = system: IGROV-1
# CCRF-CEM = system: CCRF-CEM
# OVCAR-8 = system: OVCAR-8
# A549 = system: A549
# SF-539 = system: SF-539
# PC-3 = system: PC-3
# UO-31 = system: UO-31
# NCI-H460 = system: NCI-H460
# NCI-H23 = system: NCI-H23
# BT-549 = system: BT-549
# SK-OV-3 = system: SK-OV-3
# KM12 = system: KM12
# SK-MEL-5 = system: SK-MEL-5
# RXF 393 = system: RXF 393
# HT-29 = system: HT-29
# HL-60 = system: HL-60
# 786-0 = system: 786-0
# MDA-MB-435 = system: MDA-MB-435
# OVCAR-4 = system: OVCAR-4
# ACHN = system: ACHN
# HOP-92 = system: HOP-92
smiles,measurement,setting,value
CO/N=C1/C(n2[nH]c(=O)n(-c3ccccc3)c2=O)C2C=CC1n1c(=O)n(-c3ccccc3)c(=O)n12 (stereo not given),GI50,MOLT-4,> 100 µM (inactive)
same,GI50,SNB-75,> 100 µM (inactive)
same,GI50,SF-268,> 100 µM (inactive)
same,GI50,MDA-MB-231,> 100 µM (inactive)
same,GI50,A498,> 100 µM (inactive)
same,GI50,M14,> 100 µM (inactive)
same,GI50,T47D,> 100 µM (inactive)
same,GI50,Hs-578T,> 100 µM (inactive)
same,GI50,MDA-N,> 100 µM (inactive)
same,GI50,EKVX,> 100 µM (inactive)
same,GI50,U-251,> 100 µM (inactive)
same,GI50,HCC 2998,> 100 µM (inactive)
same,GI50,NCI-H226,> 100 µM (inactive)
same,GI50,SR,> 100 µM (inactive)
same,GI50,COLO 205,> 100 µM (inactive)
same,GI50,K562,> 100 µM (inactive)
same,GI50,SNB-19,> 100 µM (inactive)
same,GI50,MCF7,> 100 µM (inactive)
same,GI50,RPMI-8226,> 100 µM (inactive)
same,GI50,TK-10,> 100 µM (inactive)
same,GI50,OVCAR-3,> 100 µM (inactive)
same,GI50,SK-MEL-2,> 100 µM (inactive)
same,GI50,NCI/ADR-RES,> 100 µM (inactive)
same,GI50,OVCAR-5,> 100 µM (inactive)
same,GI50,CAKI-1,> 100 µM (inactive)
same,GI50,HCT-116,> 100 µM (inactive)
same,GI50,DU-145,> 100 µM (inactive)
same,GI50,LOX IMVI,> 100 µM (inactive)
same,GI50,HCT-15,> 100 µM
same,GI50,Malme-3M,> 100 µM (inactive)
same,GI50,SK-MEL-28,> 100 µM (inactive)
same,GI50,SN12C,> 100 µM (inactive)
same,GI50,UACC-62,> 100 µM (inactive)
same,GI50,NCI-H522,> 100 µM (inactive)
same,GI50,SW-620,> 100 µM (inactive)
same,GI50,UACC-257,> 100 µM (inactive)
same,GI50,IGROV-1,> 100 µM (inactive)
same,GI50,CCRF-CEM,> 100 µM (inactive)
same,GI50,OVCAR-8,> 100 µM (inactive)
same,GI50,A549,> 100 µM (inactive)
same,GI50,SF-539,> 100 µM (inactive)
same,GI50,PC-3,> 100 µM (inactive)
same,GI50,UO-31,> 100 µM (inactive)
same,GI50,NCI-H460,> 100 µM (inactive)
same,GI50,NCI-H23,> 100 µM (inactive)
same,GI50,BT-549,> 100 µM (inactive)
same,GI50,SK-OV-3,> 100 µM (inactive)
same,GI50,KM12,> 100 µM (inactive)
same,GI50,SK-MEL-5,> 100 µM (inactive)
same,GI50,RXF 393,> 100 µM (inactive)
same,GI50,HT-29,> 100 µM (inactive)
same,GI50,HL-60,> 100 µM (inactive)
same,GI50,786-0,> 100 µM (inactive)
same,GI50,MDA-MB-435,> 100 µM (inactive)
same,GI50,OVCAR-4,> 100 µM (inactive)
Cc1ccc(-n2c(O)c(C#N)c3[nH]nc(N)c3c2=O)cc1,GI50,MOLT-4,> 100 µM (inactive)
same,GI50,SNB-75,> 100 µM (inactive)
same,GI50,SF-268,> 100 µM (inactive)
same,GI50,MDA-MB-231,> 100 µM (inactive)
same,GI50,A498,> 100 µM (inactive)
same,GI50,M14,> 100 µM (inactive)
same,GI50,T47D,> 100 µM (inactive)
same,GI50,Hs-578T,> 100 µM (inactive)
same,GI50,MDA-N,> 100 µM (inactive)
same,GI50,EKVX,> 100 µM (inactive)
same,GI50,U-251,> 100 µM (inactive)
same,GI50,HCC 2998,> 100 µM (inactive)
same,GI50,NCI-H226,> 100 µM (inactive)
same,GI50,SR,> 100 µM (inactive)
same,GI50,COLO 205,> 100 µM (inactive)
same,GI50,K562,> 100 µM (inactive)
same,GI50,SNB-19,> 100 µM (inactive)
same,GI50,MCF7,> 100 µM (inactive)
same,GI50,RPMI-8226,> 100 µM (inactive)
same,GI50,TK-10,> 100 µM (inactive)
same,GI50,OVCAR-3,> 100 µM (inactive)
same,GI50,SK-MEL-2,> 100 µM (inactive)
same,GI50,NCI/ADR-RES,> 100 µM (inactive)
same,GI50,OVCAR-5,> 100 µM (inactive)
same,GI50,CAKI-1,> 100 µM (inactive)
same,GI50,HCT-116,> 100 µM (inactive)
same,GI50,DU-145,> 100 µM (inactive)
same,GI50,LOX IMVI,> 100 µM (inactive)
same,GI50,HCT-15,> 100 µM
same,GI50,Malme-3M,> 100 µM (inactive)
same,GI50,SK-MEL-28,> 100 µM (inactive)
same,GI50,SN12C,> 100 µM (inactive)
same,GI50,UACC-62,> 100 µM (inactive)
same,GI50,NCI-H522,> 100 µM (inactive)
same,GI50,SW-620,> 100 µM (inactive)
same,GI50,UACC-257,> 100 µM (inactive)
same,GI50,IGROV-1,> 100 µM (inactive)
same,GI50,CCRF-CEM,> 100 µM (inactive)
same,GI50,OVCAR-8,> 100 µM (inactive)
same,GI50,A549,> 100 µM (inactive)
same,GI50,SF-539,> 100 µM (inactive)
same,GI50,PC-3,> 100 µM (inactive)
same,GI50,UO-31,> 100 µM (inactive)
same,GI50,NCI-H460,> 100 µM (inactive)
same,GI50,NCI-H23,> 100 µM (inactive)
same,GI50,BT-549,> 100 µM (inactive)
same,GI50,SK-OV-3,> 100 µM (inactive)
same,GI50,KM12,> 100 µM (inactive)
same,GI50,SK-MEL-5,> 100 µM (inactive)
same,GI50,RXF 393,> 100 µM (inactive)
same,GI50,HT-29,> 100 µM (inactive)
same,GI50,HL-60,> 100 µM (inactive)
same,GI50,786-0,> 100 µM (inactive)
same,GI50,MDA-MB-435,> 100 µM (inactive)
same,GI50,OVCAR-4,> 100 µM (inactive)
N#CC1C(=S)NC(c2ccccc2)=CC12CCCCC2 (stereo not given),GI50,MOLT-4,20.7 µM (inactive)
same,GI50,SNB-75,58.7 µM (inactive)
same,GI50,SF-268,66.8 µM (inactive)
same,GI50,MDA-MB-231,38.9 µM (inactive)
same,GI50,A498,22.8 µM (inactive)
same,GI50,M14,26.1 µM (inactive)
same,GI50,T47D,10.8 µM (inactive)
same,GI50,Hs-578T,53.7 µM (inactive)
same,GI50,MDA-N,31.5 µM (inactive)
same,GI50,EKVX,17.8 µM (inactive)
same,GI50,U-251,31.1 µM (inactive)
same,GI50,HCC 2998,> 100 µM (inactive)
same,GI50,NCI-H226,26.7 µM (inactive)
same,GI50,SR,21.1 µM (inactive)
same,GI50,COLO 205,30.1 µM (inactive)
same,GI50,K562,26.5 µM (inactive)
same,GI50,SNB-19,32.5 µM (inactive)
same,GI50,MCF7,21.9 µM (inactive)
same,GI50,RPMI-8226,23.3 µM (inactive)
same,GI50,TK-10,23 µM (inactive)
same,GI50,SK-MEL-2,24 µM (inactive)
same,GI50,NCI/ADR-RES,28.8 µM (inactive)
same,GI50,OVCAR-5,37.5 µM (inactive)
same,GI50,CAKI-1,47.3 µM (inactive)
same,GI50,HCT-116,24.5 µM (inactive)
same,GI50,DU-145,26.6 µM (inactive)
same,GI50,LOX IMVI,18.6 µM (inactive)
same,GI50,HCT-15,19.9 µM
same,GI50,Malme-3M,22.2 µM (inactive)
same,GI50,SK-MEL-28,34.4 µM (inactive)
same,GI50,SN12C,35 µM (inactive)
same,GI50,UACC-62,20 µM (inactive)
same,GI50,NCI-H522,22.1 µM (inactive)
same,GI50,SW-620,38.8 µM (inactive)
same,GI50,UACC-257,64.7 µM (inactive)
same,GI50,IGROV-1,23.4 µM (inactive)
same,GI50,CCRF-CEM,25.5 µM (inactive)
same,GI50,OVCAR-8,32.1 µM (inactive)
same,GI50,A549,29.6 µM (inactive)
same,GI50,SF-539,43 µM (inactive)
same,GI50,PC-3,38 µM (inactive)
same,GI50,UO-31,25 µM (inactive)
same,GI50,NCI-H460,94.8 µM (inactive)
same,GI50,NCI-H23,15.7 µM (inactive)
same,GI50,ACHN,25.1 µM (inactive)
same,GI50,BT-549,15.8 µM (inactive)
same,GI50,KM12,22.9 µM (inactive)
same,GI50,SK-MEL-5,25.1 µM (inactive)
same,GI50,RXF 393,87.1 µM (inactive)
same,GI50,HOP-92,18.6 µM (inactive)
same,GI50,HT-29,27.6 µM (inactive)
same,GI50,HL-60,22.2 µM (inactive)
same,GI50,786-0,35 µM (inactive)
same,GI50,MDA-MB-435,18.2 µM (inactive)
same,GI50,OVCAR-4,26.4 µM (inactive)
